According to patent US20240158370A1, “CK1 alpha AND DUAL CK1 alpha / GSPT1 DEGRADING COMPOUNDS” (Innovo Therapeutics, Inc., priority 2022, published 2024):

How the values were obtained:
GSPT1 = GSPT1 (Homo sapiens, UniProt P15170+Q96SW2); experiment: HiBiT degradation assay, GSPT1, Procedure A; format: cell-based; set-up: HiBit-GSPT1 KI HEK293(LgBit) Cells; host or cells: HEK293(LgBit) knock-in cells
Procedure, shortened: (§1)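 Luminescence from HiBiT lytic detection reports remaining tagged protein after cells sit six hours at 37° C with compound across ten concentrations (10 μM down to 0.005 μM, 0.1% DMSO). A 4-parameter curve fit gives DC50 and Ymin.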

CK1α = target: T1, CK1α (Homo sapiens, UniProt P48729+Q96SW2); experiment: HiBiT degradation assay, CK1α, Procedure A; format: cell-based
T1 construct: CSNK1A1-HiBit KI HEK293(LgBit) Cells; host or cells: HEK293(LgBit) knock-in cells
T1 sequence (P48729 whole entry): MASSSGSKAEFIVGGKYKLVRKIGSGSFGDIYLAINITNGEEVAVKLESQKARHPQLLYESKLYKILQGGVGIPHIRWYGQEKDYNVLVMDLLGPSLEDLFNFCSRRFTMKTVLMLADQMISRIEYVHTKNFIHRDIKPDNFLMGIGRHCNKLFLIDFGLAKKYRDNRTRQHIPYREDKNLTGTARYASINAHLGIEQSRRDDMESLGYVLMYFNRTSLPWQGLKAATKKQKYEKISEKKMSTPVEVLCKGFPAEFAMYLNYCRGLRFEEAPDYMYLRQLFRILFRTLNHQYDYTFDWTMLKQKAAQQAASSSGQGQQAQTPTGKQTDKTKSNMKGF
T1 sequence (Q96SW2 whole entry): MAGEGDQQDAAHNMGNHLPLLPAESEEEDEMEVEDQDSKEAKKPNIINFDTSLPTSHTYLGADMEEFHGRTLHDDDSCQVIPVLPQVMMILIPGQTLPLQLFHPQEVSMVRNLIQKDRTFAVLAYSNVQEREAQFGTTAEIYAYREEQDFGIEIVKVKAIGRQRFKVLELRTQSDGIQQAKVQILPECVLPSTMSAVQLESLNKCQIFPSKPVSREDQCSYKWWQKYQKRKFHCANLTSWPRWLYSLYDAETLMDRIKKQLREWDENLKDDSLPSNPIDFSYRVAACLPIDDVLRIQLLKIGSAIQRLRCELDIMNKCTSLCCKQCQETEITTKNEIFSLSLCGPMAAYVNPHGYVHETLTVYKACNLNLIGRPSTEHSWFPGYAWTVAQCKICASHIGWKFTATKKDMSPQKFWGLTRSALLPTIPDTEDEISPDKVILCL
T1 sequence (Q16531 whole entry partner): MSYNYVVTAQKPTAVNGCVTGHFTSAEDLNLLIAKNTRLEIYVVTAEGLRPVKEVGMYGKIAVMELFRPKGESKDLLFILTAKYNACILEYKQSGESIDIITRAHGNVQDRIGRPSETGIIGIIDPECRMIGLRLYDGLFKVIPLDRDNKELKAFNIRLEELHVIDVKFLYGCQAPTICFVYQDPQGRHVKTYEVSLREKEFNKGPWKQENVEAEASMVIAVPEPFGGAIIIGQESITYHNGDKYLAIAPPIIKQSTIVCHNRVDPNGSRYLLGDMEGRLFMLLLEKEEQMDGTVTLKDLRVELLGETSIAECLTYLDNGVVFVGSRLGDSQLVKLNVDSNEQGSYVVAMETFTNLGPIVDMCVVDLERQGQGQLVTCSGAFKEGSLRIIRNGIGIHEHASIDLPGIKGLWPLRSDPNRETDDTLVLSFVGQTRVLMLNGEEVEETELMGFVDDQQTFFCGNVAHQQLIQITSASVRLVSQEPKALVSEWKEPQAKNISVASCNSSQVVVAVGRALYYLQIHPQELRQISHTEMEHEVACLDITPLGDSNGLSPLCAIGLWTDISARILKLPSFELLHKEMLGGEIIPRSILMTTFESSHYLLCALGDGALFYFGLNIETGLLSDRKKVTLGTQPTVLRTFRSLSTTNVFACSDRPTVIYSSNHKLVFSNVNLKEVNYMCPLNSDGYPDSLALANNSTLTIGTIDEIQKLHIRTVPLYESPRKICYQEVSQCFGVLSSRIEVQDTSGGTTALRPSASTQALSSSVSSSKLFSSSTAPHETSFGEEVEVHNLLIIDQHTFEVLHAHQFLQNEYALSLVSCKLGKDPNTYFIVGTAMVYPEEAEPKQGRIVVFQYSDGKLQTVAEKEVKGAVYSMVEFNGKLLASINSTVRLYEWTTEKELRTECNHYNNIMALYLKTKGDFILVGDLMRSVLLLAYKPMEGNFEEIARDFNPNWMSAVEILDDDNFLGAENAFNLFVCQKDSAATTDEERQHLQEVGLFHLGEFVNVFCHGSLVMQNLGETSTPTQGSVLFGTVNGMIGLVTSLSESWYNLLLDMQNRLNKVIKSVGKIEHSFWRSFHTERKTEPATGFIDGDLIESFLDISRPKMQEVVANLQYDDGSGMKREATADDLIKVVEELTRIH
Procedure, shortened: as §1

Sequence of GSPT1 (P15170 whole entry): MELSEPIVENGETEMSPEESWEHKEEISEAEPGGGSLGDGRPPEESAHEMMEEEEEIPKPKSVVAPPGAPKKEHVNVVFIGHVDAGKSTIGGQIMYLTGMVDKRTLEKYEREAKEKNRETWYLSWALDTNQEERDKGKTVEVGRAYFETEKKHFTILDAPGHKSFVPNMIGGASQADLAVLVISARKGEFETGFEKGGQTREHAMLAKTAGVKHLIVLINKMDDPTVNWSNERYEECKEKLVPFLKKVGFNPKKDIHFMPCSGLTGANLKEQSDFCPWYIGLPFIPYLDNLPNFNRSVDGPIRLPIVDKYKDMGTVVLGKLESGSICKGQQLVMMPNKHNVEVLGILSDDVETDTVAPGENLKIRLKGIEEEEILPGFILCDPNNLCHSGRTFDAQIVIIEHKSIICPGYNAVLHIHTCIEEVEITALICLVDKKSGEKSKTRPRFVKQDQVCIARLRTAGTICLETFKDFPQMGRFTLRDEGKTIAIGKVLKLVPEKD
Sequence of GSPT1 (Q96SW2 whole entry): as the sequence (Q96SW2 whole entry) above
Sequence of GSPT1 (Q16531 whole entry partner): as the sequence (Q16531 whole entry partner) above

| Compound | DC50 (GSPT1; six hours incubation) [nM] | GSPT1 Ymin (GSPT1; six hours incubation) | CK1α Ymin (CK1α; six hours incubation) | DC50 (CK1α; six hours incubation) [nM] | DC50 (GSPT1; six hours) [nM] | GSPT1 Ymin (GSPT1; six hours) | CK1α Ymin (CK1α; six hours) | DC50 (CK1α; six hours) [nM] |
| --- | --- | --- | --- | --- | --- | --- | --- | --- |
| COc1ccc(-c2c(-c3ccc4c(c3)CN(C3CCC(=O)NC3=O)C4=O)ncn2C)cn1 (stereo not shown) [Example 329] | ≥ 25 | E (E = >25-75% remaining) | C (C = 0-10% remaining) | < 25 |  |  |  |  |
| Cn1nc(-c2ccc3c(c2)CN(C2CCC(=O)NC2=O)C3=O)nc1[C@H]1CC[C@H](C)CC1 (stereo partly shown) [Example 616, 3-(5-(1-methyl-5-((1r,4r)-4-methylcyclohexyl)-1H-1,2,4-triazol-3-yl)-1-oxoisoindolin-2-yl)piperidine-2,6-dione] |  |  |  |  | ≥ 25 | F (F = >75-100% remaining) | E (E = >25-75% remaining) | ≥ 25 |
| Cc1c(-c2ccc3c(c2)CN(C2CCC(=O)NC2=O)C3=O)nn(C)c1-c1ccccc1 (stereo not shown) [Example 211, 3-(5-(1,4-Dimethyl-5-phenyl-1H-pyrazol-3-yl)-1-oxoisoindolin-2-yl)piperidine-2,6-dione] | ≥ 25 | F (F = >75-100% remaining) | C (C = 0-10% remaining) | < 25 |  |  |  |  |
| Cc1ccc(-c2c(-c3ccc4c(c3)CN(C3CCC(=O)NC3=O)C4=O)ncn2C)c(C#N)c1 (stereo not shown) [Example 244] | ≥ 25 | F (F = >75-100% remaining) | D (D = >10- 25% remaining) | < 25 |  |  |  |  |
| COc1ccc(Cl)c(-c2c(-c3ccc4c(c3)CN(C3CCC(=O)NC3=O)C4=O)cnn2C)c1 (stereo not shown) [Example 82] | ≥ 25 | F (F = >75-100% remaining) | E (E = >25-75% remaining) | < 25 |  |  |  |  |
| O=C1CCC(N2Cc3cc(-c4nc(-c5ccccc5)co4)ccc3C2=O)C(=O)N1 (stereo not shown) [Example 42, 3-(1-Oxo-5-(4-phenyloxazol-2-yl)isoindolin-2-yl)piperidine-2,6-dione] | ≥ 25 | F (F = >75-100% remaining) | E (E = >25-75% remaining) | < 25 |  |  |  |  |
| Cc1cccc(F)c1-c1c(-c2ccc3c(c2)CN(C2CCC(=O)NC2=O)C3=O)ncn1C (stereo not shown) [Example 172] | ≥ 25 | F (F = >75-100% remaining) | E (E = >25-75% remaining) | < 25 |  |  |  |  |
| Cn1ncc(-c2ccc3c(c2)CN(C2CCC(=O)NC2=O)C3=O)c1-c1ccc(F)c(F)c1 (stereo not shown) [Example 134] | ≥ 25 | F (F = >75-100% remaining) | E (E = >25-75% remaining) | < 25 |  |  |  |  |
| [2H]C([2H])([2H])n1ncc(-c2ccc3c(c2)CN(C2CCC(=O)NC2=O)C3=O)c1-c1ccc(OC)c(F)c1 (stereo not shown) [Example 431, 3-(5-(5-(3-fluoro-4-methoxyphenyl)-1-(methyl-d3)-1H-pyrazol-4-yl)-1-oxoisoindolin-2-yl)piperidine-2,6-dione] |  |  |  |  | ≥ 25 | F (F = >75-100% remaining) | C (C = 0-10% remaining) | < 25 |
| COc1ccsc1-c1c(-c2ccc3c(c2)CN(C2CCC(=O)NC2=O)C3=O)cnn1C (stereo not shown) [Example 473] |  |  |  |  | ≥ 25 | F (F = >75-100% remaining) | E (E = >25-75% remaining) | < 25 |
| O=C1CCC(N2Cc3cc(-c4cc(-c5ccccc5)n(C(F)F)n4)ccc3C2=O)C(=O)N1 (stereo not shown) [Example 337, 3-(5-(1-(difluoromethyl)-5-phenyl-1H-pyrazol-3-yl)-1-oxoisoindolin-2-yl)piperidine-2,6-dione] | ≥ 25 | F (F = >75-100% remaining) | D (D = >10- 25% remaining) | ≥ 25 |  |  |  |  |
| Cn1ncc(-c2ccc3c(c2)CN(C2CCC(=O)NC2=O)C3=O)c1-c1ccc2nccn2c1 (stereo not shown) [Example 382] |  |  |  |  | ≥ 25 | F (F = >75-100% remaining) | D (D = >10- 25% remaining) | ≥ 25 |
| Cc1ccc(Cl)c(-c2c(-c3ccc4c(c3)CN(C3CCC(=O)NC3=O)C4=O)ncn2C)c1 (stereo not shown) [Example 199] | < 25 | F (F = >75-100% remaining) | D (D = >10- 25% remaining) | < 25 |  |  |  |  |
| Cc1ccc(-c2c(-c3ccc4c(c3)CN(C3CCC(=O)NC3=O)C4=O)ncn2C)cn1 (stereo not shown) [Example 397] |  |  |  |  | ≥ 25 | F (F = >75-100% remaining) | D (D = >10- 25% remaining) | ≥ 25 |
| Cn1cnc(-c2ccc3c(c2)CN(C2CCC(=O)NC2=O)C3=O)c1-c1ccn(C)c(=O)c1 (stereo not shown) [Example 328] | ≥ 25 | F (F = >75-100% remaining) | D (D = >10- 25% remaining) | ≥ 25 |  |  |  |  |
| CN1N=CC(c2ccc3c(c2)CN(C2CCC(=O)NC2=O)C3=O)C1c1cnc(C#N)nc1 (stereo not shown) [Example 374] | ≥ 25 | F (F = >75-100% remaining) | F (F = >75-100% remaining) | ≥ 25 |  |  |  |  |
| Cn1cnc(-c2ccc3c(c2)CN(C2CCC(=O)NC2=O)C3=O)c1-c1ccc2sccc2c1 (stereo not shown) [Example 515] |  |  |  |  | < 25 | E (E = >25-75% remaining) | C (C = 0-10% remaining) | < 25 |
| Cn1c(C2CCOCC2)nc(-c2ccc3c(c2)CN(C2CCC(=O)NC2=O)C3=O)c1-c1ccccc1 (stereo not shown) [Example 50, 3-(5-(1-methyl-5-phenyl-2-(tetrahydro-2H-pyran-4-yl)-1H-imidazol-4-yl)-1-oxoisoindolin-2-yl)piperidine-2,6-dione] | ≥ 25 | F (F = >75-100% remaining) | C (C = 0-10% remaining) | < 25 |  |  |  |  |
| Cn1cnc(-c2ccc3c(c2)CN(C2CCC(=O)NC2=O)C3=O)c1-c1ccnn1C (stereo not shown) [Example 318] | < 25 | F (F = >75-100% remaining) | E (E = >25-75% remaining) | < 25 |  |  |  |  |
| Cn1cnc(-c2ccc3c(c2)CN(C2CCC(=O)NC2=O)C3=O)c1C1=CCOC1 (stereo not shown) [Example 598] |  |  |  |  | ≥ 25 | E (E = >25-75% remaining) | D (D = >10- 25% remaining) | < 25 |
| COc1ccc(-c2c(-c3ccc4c(c3)CN(C3CCC(=O)NC3=O)C4=O)cnn2C)cc1OCc1ccccc1 (stereo not shown) [Example 113] | ≥ 25 | F (F = >75-100% remaining) | D (D = >10- 25% remaining) | < 25 |  |  |  |  |
| Cn1ncc(-c2ccc3c(c2)CN(C2CCC(=O)NC2=O)C3=O)c1-c1cccc(O)c1 (stereo not shown) [Example 219] | ≥ 25 | F (F = >75-100% remaining) | C (C = 0-10% remaining) | < 25 |  |  |  |  |
| Cn1ncc(-c2ccc3c(c2)CN(C2CCC(=O)NC2=O)C3=O)c1-c1ccc2c(c1)OCC2 (stereo not shown) [Example 155] | ≥ 25 | F (F = >75-100% remaining) | E (E = >25-75% remaining) | < 25 |  |  |  |  |
| Cc1ncccc1-c1c(-c2ccc3c(c2)CN(C2CCC(=O)NC2=O)C3=O)cnn1C (stereo not shown) [Example 472] |  |  |  |  | ≥ 25 | F (F = >75-100% remaining) | E (E = >25-75% remaining) | < 25 |
| COc1ccc(-c2c(-c3ccc4c(c3)CN(C3CCC(=O)NC3=O)C4=O)cnn2C)cn1 (stereo not shown) [Example 378] |  |  |  |  | ≥ 25 | F (F = >75-100% remaining) | E (E = >25-75% remaining) | < 25 |
| Cn1cnc(-c2ccc3c(c2)CN(C2CCC(=O)NC2=O)C3=O)c1-c1ccc(N2CCCCC2)nc1 (stereo not shown) [Example 403] |  |  |  |  | ≥ 25 | F (F = >75-100% remaining) | D (D = >10- 25% remaining) | < 25 |
| Cn1cnc(-c2ccc3c(c2)CN(C2CCC(=O)NC2=O)C3=O)c1-c1ccc(Cl)c(Cl)c1 (stereo not shown) [Example 283] | ≥ 25 | F (F = >75-100% remaining) | E (E = >25-75% remaining) | < 25 |  |  |  |  |
| Cn1cnc(-c2ccc3c(c2)CN(C2CCC(=O)NC2=O)C3=O)c1-c1cnn(C2CCCCC2)c1 (stereo not shown) [Example 517] |  |  |  |  | < 25 | F (F = >75-100% remaining) | E (E = >25-75% remaining) | ≥ 25 |
